What follows are compounds tested on T. brucei brucei clone 427-221a (bloodstream forms) (assay: T. brucei brucei growth inhibition assay). Conditions: Trypanosoma brucei, 40 hours at 37° C., CellTiter-Glo ATP-bioluminescence.
Format: cell-based
Experimental: The growth inhibition assay for T. brucei brucei was conducted as described previously by Z. B. Mackey, et al (Kenny K. H. Ang, Joseline Ratnam, Jiri Gut, Jennifer Legac, Elizabeth Hansell, Zachary B. Mackey, Katarzyna M. Skrzypczynska, Anjan Debnath, Juan C. Engel, Philip J. Rosenthal, James H. McKerrow, Michelle R. Arkin, Adam R. Renslo (2011) “Mining a Cathepsin Inhibitor Library for New Antiparasitic Drug Leads”, PLoS Neglected Tropical Diseases, 5(5):e1023). Bloodstream forms of the monomorphic T. brucei brucei clone 427-221a were grown in complete HMI-9 medium containing 10% FBS, 10% Serum Plus medium (Sigma Inc., St. Louis, Mo., USA), 50 U/mL penicillin and […] (Invitrogen) at 37° C. under a humidified atmosphere and 5% CO2. Inhibitor stocks were prepared in 100% DMSO and screened at […] for percent inhibition values or serially diluted from […] in 10% DMSO for IC50 determinations. […] of diluted parasites ([…]) in sterile Greiner 96-well flat white opaque culture plates such that the final DMSO concentration was 0.5%. The 0% inhibition control wells contained 0.5% DMSO while 100% inhibition control wells contained 50 mM thimerosal (Sigma). After compound addition, plates were incubated for 40 hours at 37° C. At the end of the incubation period, […] of CellTiter-Glo™ reagent (Promega Inc., Madison, Wis., USA) was added to each well and plates were placed on an orbital shaker at room temperature for 2 min to induce lysis. After an additional 10 min of incubation without shaking to stabilize the signal, the ATP-bioluminescence of each well was determined using an Analyst HT plate reader (Molecular Devices, Sunnyvale, Calif., USA). Raw values were converted to log 10 and percentage inhibition calculated relative to the controls. IC50 curve fittings were performed with Prism 4 software as above. Pentamidine was used as a comparator in the assay.

Compound | IC50 [nM]
CN(C)CCCC1(c2ccc(F)cc2)OCc2cc(-c3ccc4ocnc4c3)ccc21 (stereo not shown) [Example 2, 3-[1-(4-flurophenyl)-5-(1,3-benzoxazol-5-yl)-1,3-dihydro-2-benzofuran-1-yl]-N,N-dimethylpropan-1-amine] | 410
CN(C)CCCC1(c2ccc(F)cc2)OCc2cc(-c3cccc4[nH]ccc34)ccc21 (stereo not shown) [Example 1, 3-[1-(4-fluorophenyl)-5-(1H-indol-4-yl)-1,3-dihydro-2-benzofuran-1-yl]-N,N-dimethylpropan-1-amine] | 1500
Cc1ccc2oc(-c3ccc4c(c3)COC4(CCCN(C)C)c3ccc(F)cc3)nc2c1 (stereo not shown) [Example 8, 3-[1-(4-fluorophenyl)-5-(5-methyl-1,3-benzoxazol-2-yl)-1,3-dihydro-2-benzofuran-1-yl]-N,N-dimethylpropan-1-amine] | 110
CN(C)CCCC1(c2ccc(F)cc2)OCc2cc(-c3ccc4scnc4c3)ccc21 (stereo not shown) [Example 3, 3-[1-(4-fluorophenyl)-5-(1,3-benzothiazol-5-yl)-1,3-dihydro-2-benzofuran-1-yl]-N,N-dimethylpropan-1-amine] | 1200

Next, values leading:

IC50 [nM] | Compound
510 | CN(C)CCCC1(c2ccc(F)cc2)OCc2cc(-c3cc4ccccc4s3)ccc21 (stereo not shown) [Example 4]
1000 | CN(C)CCCC1(c2ccc(F)cc2)OCc2cc(-c3cncc4ccccc34)ccc21 (stereo not shown) [Example 7, 3-[1-(4-fluorophenyl)]-[5-(isoquinolin-4-yl)-1,3-dihydro-2-benzofuran-1-yl]-N,N-dimethylpropan-1-amine]
3000 | CN(C)CCCC1(c2ccc(F)cc2)OCc2cc(-c3cnc4ccccc4c3)ccc21 (stereo not shown) [Example 6, 3-[1-(4-fluorophenyl)]-[5-(quinolin-3-yl)-1,3-dihydro-2-benzofuran-1-yl]-N,N-dimethylpropan-1-amine]

Reference: patent publication US10351552B2, “Bicyclic antiparasitic compounds” (MediSynergies, LLC, priority 2017, dated 2019)
